Measured values taken from paper PMC2634724 (British Journal of Cancer, 2009).
Where “and” joins values, the source holds several entries; their conditions need not be identical. Equal values may be shown once. Read-outs that look alike come from different tables or passages of the source.

Assays:
advanced solid tumours [1] = settings: prior docetaxel therapy in the same two patients with metastatic breast cancer; patient history; cited from earlier work
[2] = system: trastuzumab-resistant breast cancer; design: method as in André et al, 2008; settings: everolimus and paclitaxel with trastuzumab; population pre-treated with trastuzumab and taxanes; preliminary; ref André et al, 2008; cited from earlier work
[3] = as a single agent; no reference given; cited from earlier work
tumour models = system: tumour models; design: method as in O'Reilly et al, 2003; settings: schedule effect, ref O'Reilly et al, 2003; cited from earlier work
[4] = system: patients with advanced solid tumours; test: Safety and dose-limiting toxicity, NCI Common Toxicity Criteria version 2.0; settings: everolimus + paclitaxel, 16 patients
Protocol: (§2) Patients receiving at least one dose of study drug medications were evaluated weekly for safety using the National Cancer Institute Common Toxicity Criteria version 2.0. Safety assessments consisted of clinical examinations and scheduled laboratory evaluations and electrocardiograms. […] Treatment with the combination was discontinued on any grade 4 toxicity or failure to return to grade ⩽1 within 2 weeks. […] The concomitant use of any drugs that may interfere with cytochrome CYP450-3A was discouraged. […] Anti-tumour activity was assessed using Response Evaluation Criteria in Solid Tumors.
(§3) Dose-limiting toxicity was defined as occurring during the first 28-day cycle, suspected of being drug related, and included any grade 4 toxicity, any grade 3 non-haematological toxicity despite preventive therapy, or grade ⩾2 neutropenia, or thrombocytopenia failing to revert to grade ⩽1 within 2 weeks. Three patients were entered per dose level, with expansion to six patients if one of three patients experienced DLT. If DLT occurred in none of three or no more than one of six patients in dose level 1, doses would be escalated to dose level 2. Dose-limiting toxicity in more than one of three or more than two of six patients would be considered unacceptable.

S6K1 [5] = system: S6K1; design: method as in Tabernero et al, 2008; settings: weekly dosing (20, 50, or 70 mg), immunohistochemistry; ref Tabernero et al, 2008; cited from earlier work
[6] = Pharmacokinetics of everolimus in whole blood (LC-MS, non-compartmental); format: in vivo, human; settings: for Tmax / Cmax / half-life: whole blood; for Cmax / half-life: mean (s.d.)
Protocol: (§1) For everolimus, sampling was carried out predose and 1, 2, 4, 6, 12, 24, 48, 96, and 168 h after administration. Everolimus was measured in whole blood by liquid chromatography–mass spectrometry after liquid extraction, its lower limit of quantification being 0.368 ng ml^−1. […] Pharmacokinetic parameters were derived by standard non-compartmental methods of analysis (WinNonlin Pro 5.0). The measured parameters included the maximum plasma concentration (Cmax), time to reach Cmax (tmax), and the truncated area under the time–concentration curve (AUClast).

[7] = system: patients with advanced solid tumours; settings: human, in vivo
Protocol: as §2, §3

[8] = system: patients with advanced cancers; design: method as in Tabernero et al, 2008; settings: single-agent everolimus 70 mg weekly; ref Tabernero et al, 2008; cited from earlier work
S6K1 [9] = system: S6K1; design: method as in O'Donnell et al, 2008; settings: ref O'Donnell et al, 2008, cited from earlier work
advanced solid tumours [10] = test: Anti-tumour activity, Response Evaluation Criteria in Solid Tumors; format: in vivo, human
Protocol: as §2

clinical = settings: human, in vivo, iv
Protocol: as §1

[11] = as a single agent; cited from earlier work
cervical cancer = system: cervical cancer; design: method as in Mori et al, 2007; settings: weekly paclitaxel, cervical cancer patients; ref Mori et al, 2007; cited from earlier work
[12] = human, po, 15 mg, everolimus 15 mg oral alone, dose level 1, n=3
[13] = human, po, 30 mg, everolimus 30 mg oral alone, dose level 2, n=4
[14] = human, po, everolimus 15 mg oral with paclitaxel 80 mg m^−2, dose level 1, n=3
[15] = human, po, everolimus 30 mg oral with paclitaxel 80 mg m^−2, dose level 2, n=7
[16] = everolimus + paclitaxel, 16 patients

## CC(=O)O[C@@]12CO[C@@H]1C[C@H](O)[C@@]1(C)C(=O)[C@H](O)C3=C(C)[C@@H](OC(=O)[C@H](O)[C@@H](NC(=O)OC(C)(C)C)c4ccccc4)C[C@@](O)([C@@H](OC(=O)c4ccccc4)[C@H]21)C3(C)C [docetaxel]
Advanced solid tumours [1]
  Duration of tumour stabilisation previously recorded: 3.7 months and 3.5 months

## CO[C@H]1C[C@@H]2CC[C@@H](C)[C@@](O)(O2)C(=O)C(=O)N2CCCC[C@H]2C(=O)O[C@H]([C@H](C)C[C@@H]2CC[C@@H](OCCO)[C@H](OC)C2)CC(=O)[C@H](C)/C=C(\C)[C@@H](O)[C@@H](OC)C(=O)[C@H](C)C[C@H](C)/C=C/C=C/C=C/1C [everolimus, Everolimus]
[2]
  Rate of response: 46%
[3]
  Terminal half-life: about 30 h
Tumour models
  Effect of in vivo combination with paclitaxel: additive and synergistic effects
[4]
  Toxicity-related death: No toxicity-related death
S6K1 [5]
  Dose with confirmed inhibition of S6K1 in paired tumour tissue biopsies: ≥ 20 mg
[6]; everolimus 30 mg oral with paclitaxel 80 mg m^−2, dose level 2, n=7, median (range)
  Tmax: 1.0 (1–4) h
[6]; everolimus with paclitaxel vs alone
  Change in tmax, Cmax and AUClast when given in combination: no meaningful change
[6]; [12]
  Cmax: 0.0752 ± 0.0374 µg/mL
  half-life: 29.5 ± 8.5 h
[6]; [13]
  Cmax: 0.093 ± 0.0286 µg/mL
  half-life: 26.9 ± 7.1 h
[6]; [14]
  Cmax: 0.0579 ± 0.0358 µg/mL
  half-life: 24.6 ± 3.6 h
[6]; [15]
  Cmax: 0.0945 ± 0.0601 µg/mL
  half-life: 27.4 ± 5.6 h
[6]; human, po, read-out: tmax
  Tmax: 1 h
[6]; human, everolimus 15 mg oral alone, dose level 1, n=3, median (range), read-out: tmax
  Tmax: 1 h
[6]; human, everolimus 30 mg oral alone, dose level 2, n=4, median (range), read-out: tmax
  Tmax: 1 h
[6]; one patient at dose level 2 (everolimus 30 mg), concomitant medication with fluconazole
  Change of everolimus AUC with concomitant fluconazole: threefold increase
[7]
  Dose interruptions in any cycle, n (%): 8 (50.0)
[8]
  Dose-limiting toxicities observed: grade 3 stomatitis, neutropenia, and hyperglycaemia
S6K1 [9]; single-agent everolimus at doses ⩾20 mg per week
  Duration of sustained inhibition of S6K1 activity in peripheral blood mononuclear cells: at least 7 days
S6K1 [9]; single-agent everolimus
  Dose with consistent inhibition of S6K1 activity in peripheral blood mononuclear cells: ≥ 20 mg per week
Advanced solid tumours [10]; [16]
  Objective response: No objective response
  Tumour stabilisation reported, patients: 11 patients
Advanced solid tumours [10]; everolimus + paclitaxel, breast (two), ovarian (two), thyroid carcinoma (one), liposarcoma (one)
  Sustained tumour stabilisation for more than 4 months, patients: six
Advanced solid tumours [10]; two patients with metastatic breast cancer at dose level 2 (everolimus 30 mg + paclitaxel)
  Duration of tumour stabilisation: > 6 months

## CC(=O)O[C@H]1C(=O)[C@@]2(C)[C@H]([C@H](OC(=O)c3ccccc3)[C@]3(O)C[C@H](OC(=O)[C@H](O)[C@@H](NC(=O)c4ccccc4)c4ccccc4)C(C)=C1C3(C)C)[C@]1(OC(C)=O)CO[C@@H]1C[C@@H]2O [paclitaxel]
clinical
  Tmax: 4.8 min
[11]
  Terminal half-life: about 10 h
Cervical cancer
  Time apoptosis could be induced after treatment: up to 1 week
  Time paclitaxel could be detected in tissue: up to 6 days
